We go through three molecules from patent US10344060B2 (priority 2013, dated 2019).

SMILES strings stand for the structures. “And” between values parts separate entries of the source, which are not always exact repeats. Equal entries are not always repeated. “Also recorded” adds a separate entry of the source. Where two headings read alike, the source gives them in different places.

The term IC50 denotes the concentration that gives 50% inhibition. One may read the Cmax as the maximum level reached in the sampled fluid or tissue. In general, half-life refers to the time in which the quantity being followed falls by half. A low value points to rapid decline.

Data set [1] addresses T1, hNav1.7 (Homo sapiens, UniProt Q15858). The experiment in a line: cell-based. The data set is classed as cell-based.
Data set [2] deals with TTX-sensitive Nav channels in mouse DRG neuron. The conditions noted are these: for 1.x/1.7: mTTX-S / hNav1.7.
The target in data set [3] is T2, hNav1.4 (Homo sapiens, UniProt P35499). The experiment in a line: cell-based. The data set is classed as cell-based.
Data set [4] concerns TTX-resistant Nav channels in mouse DRG neuron.
For data set [5], the target named is T3, hNav1.5 (Homo sapiens, UniProt Q14524). The experiment in a line: cell-based. The following applies: IonWorks Quattro; Table 6; read-out: IC50 (μM) Nav1.5. For orientation: Patch clamp records ionic current or voltage across a cell membrane.
In the next data set the target is hNav1.3 (Homo sapiens, UniProt Q9NY46). The experiment in a line: cell-based. The data set is classed as cell-based.
For data set [6], the target named is T3, hNav1.5. The experiment in a line: cell-based. The format is cell-based.
The target of data set [7] is hNav1.8 (Homo sapiens, UniProt Q9Y5Y9). The experiment in a line: cell-based. The data set is classed as cell-based.
Chain of hNav1.8 (Homo sapiens, UniProt Q9Y5Y9) (Q9Y5Y9 whole entry): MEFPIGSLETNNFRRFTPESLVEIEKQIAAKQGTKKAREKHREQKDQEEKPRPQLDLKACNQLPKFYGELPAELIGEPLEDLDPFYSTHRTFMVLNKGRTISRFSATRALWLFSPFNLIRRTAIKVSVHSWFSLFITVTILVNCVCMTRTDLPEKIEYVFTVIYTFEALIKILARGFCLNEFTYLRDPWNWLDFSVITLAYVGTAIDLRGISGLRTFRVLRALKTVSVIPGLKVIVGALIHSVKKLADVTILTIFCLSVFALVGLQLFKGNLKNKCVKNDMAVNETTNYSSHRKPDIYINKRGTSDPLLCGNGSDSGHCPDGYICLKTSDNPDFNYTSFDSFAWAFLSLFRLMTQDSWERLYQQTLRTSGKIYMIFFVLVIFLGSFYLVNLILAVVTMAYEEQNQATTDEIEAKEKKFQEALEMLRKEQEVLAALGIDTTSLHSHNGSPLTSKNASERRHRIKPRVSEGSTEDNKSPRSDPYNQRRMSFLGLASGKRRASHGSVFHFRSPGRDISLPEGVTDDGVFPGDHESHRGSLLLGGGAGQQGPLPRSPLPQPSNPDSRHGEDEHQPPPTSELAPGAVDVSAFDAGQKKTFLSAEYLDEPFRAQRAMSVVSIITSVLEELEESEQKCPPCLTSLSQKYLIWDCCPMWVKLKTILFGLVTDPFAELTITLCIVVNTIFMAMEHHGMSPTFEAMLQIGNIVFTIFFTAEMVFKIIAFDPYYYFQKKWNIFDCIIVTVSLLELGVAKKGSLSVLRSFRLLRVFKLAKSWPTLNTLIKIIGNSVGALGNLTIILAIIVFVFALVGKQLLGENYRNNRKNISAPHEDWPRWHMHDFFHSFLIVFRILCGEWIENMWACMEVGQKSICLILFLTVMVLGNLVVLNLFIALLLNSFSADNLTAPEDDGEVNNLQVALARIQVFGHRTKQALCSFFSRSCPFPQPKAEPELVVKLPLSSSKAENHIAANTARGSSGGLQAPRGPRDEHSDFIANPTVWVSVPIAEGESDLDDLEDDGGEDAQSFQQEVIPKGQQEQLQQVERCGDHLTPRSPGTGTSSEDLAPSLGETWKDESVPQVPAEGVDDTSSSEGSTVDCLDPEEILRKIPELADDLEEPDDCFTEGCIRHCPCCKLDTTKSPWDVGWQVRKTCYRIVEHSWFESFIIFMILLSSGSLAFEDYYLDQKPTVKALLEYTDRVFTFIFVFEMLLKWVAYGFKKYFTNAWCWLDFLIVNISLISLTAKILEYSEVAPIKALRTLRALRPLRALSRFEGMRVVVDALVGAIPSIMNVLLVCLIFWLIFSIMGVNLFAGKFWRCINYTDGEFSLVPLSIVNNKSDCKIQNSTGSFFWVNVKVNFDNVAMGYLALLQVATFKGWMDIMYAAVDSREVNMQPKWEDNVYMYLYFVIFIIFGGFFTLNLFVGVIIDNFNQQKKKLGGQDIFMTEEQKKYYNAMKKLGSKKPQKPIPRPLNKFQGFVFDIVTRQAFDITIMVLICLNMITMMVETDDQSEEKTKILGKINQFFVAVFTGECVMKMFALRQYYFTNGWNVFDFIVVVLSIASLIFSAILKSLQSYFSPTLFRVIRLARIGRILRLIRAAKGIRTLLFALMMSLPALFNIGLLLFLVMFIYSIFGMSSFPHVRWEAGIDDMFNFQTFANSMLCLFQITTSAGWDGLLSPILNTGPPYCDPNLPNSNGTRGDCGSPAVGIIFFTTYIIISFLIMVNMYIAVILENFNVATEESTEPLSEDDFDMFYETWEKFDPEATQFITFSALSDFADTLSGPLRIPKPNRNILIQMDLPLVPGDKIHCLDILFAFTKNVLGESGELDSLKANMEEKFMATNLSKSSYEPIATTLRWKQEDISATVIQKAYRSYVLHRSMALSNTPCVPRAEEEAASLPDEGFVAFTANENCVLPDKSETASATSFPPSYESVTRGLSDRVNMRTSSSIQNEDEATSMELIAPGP
Data set [8] deals with hNav1.8. The experiment in a line: cell-based. The data set is classed as cell-based, human. The following applies: hNav1.8 / hNav1.7.
The conditions of data set [9]: cyno plasma, 37° C., incubation 0 hr (normalisation point).
For data set [10] the following is noted: human plasma, 37° C., incubation 0 hr (normalisation point).
The target of data set [11] is T1, hNav1.7. The experiment in a line: cell-based. The following applies: ratio of IonWorks Quattro IC50 values, Nav1.4 over Nav1.7.
The conditions of data set [12]: mouse plasma, 37° C., incubation 0 hr (normalisation point).
The target in the next data set is human Nav1.6 (Homo sapiens, UniProt Q9UQD0). The experiment in a line: cell-based. The format is cell-based.
Data set [13] concerns TTX-sensitive Nav channels in Sprague Dawley rat DRG neuron.
Another data set concerns the target human Nav1.1 (Homo sapiens, UniProt P35498). The experiment in a line: cell-based. The format is cell-based.
For data set [14], the target named is T1, hNav1.7. The experiment in a line: cell-based. The following applies: Table 15; read-out: PX hNav1.7 Tonic IC50. The format is cell-based.
A further data set concerns the target hNav1.6 (Homo sapiens, UniProt Q9UQD0). The experiment in a line: cell-based. The format is cell-based.
Data set [15] has as its target T2, hNav1.4. The experiment in a line: cell-based. The format is cell-based. The conditions noted are these: Table 12; ratio of PX tonic IC50 values.
The target in the next data set is human Nav1.2 (Homo sapiens, UniProt Q99250). The experiment in a line: cell-based. The data set is classed as cell-based.
The target of data set [16] is T3, hNav1.5. The experiment in a line: cell-based. The conditions noted are these: Table 12; ratio of PX tonic IC50 values.
The conditions of data set [17]: male CD-1 mice, 5 mg/kg s.c.
The nature of the next data set: in vivo. The conditions noted are these: male, CD-1, mouse, sc, 5 mg/kg.
Where [18] appears, read: manual WCPC, ~20% inactivation, read-out: IC50 of hNav1.5 inhibition.

T1 sequence (Q15858 whole entry): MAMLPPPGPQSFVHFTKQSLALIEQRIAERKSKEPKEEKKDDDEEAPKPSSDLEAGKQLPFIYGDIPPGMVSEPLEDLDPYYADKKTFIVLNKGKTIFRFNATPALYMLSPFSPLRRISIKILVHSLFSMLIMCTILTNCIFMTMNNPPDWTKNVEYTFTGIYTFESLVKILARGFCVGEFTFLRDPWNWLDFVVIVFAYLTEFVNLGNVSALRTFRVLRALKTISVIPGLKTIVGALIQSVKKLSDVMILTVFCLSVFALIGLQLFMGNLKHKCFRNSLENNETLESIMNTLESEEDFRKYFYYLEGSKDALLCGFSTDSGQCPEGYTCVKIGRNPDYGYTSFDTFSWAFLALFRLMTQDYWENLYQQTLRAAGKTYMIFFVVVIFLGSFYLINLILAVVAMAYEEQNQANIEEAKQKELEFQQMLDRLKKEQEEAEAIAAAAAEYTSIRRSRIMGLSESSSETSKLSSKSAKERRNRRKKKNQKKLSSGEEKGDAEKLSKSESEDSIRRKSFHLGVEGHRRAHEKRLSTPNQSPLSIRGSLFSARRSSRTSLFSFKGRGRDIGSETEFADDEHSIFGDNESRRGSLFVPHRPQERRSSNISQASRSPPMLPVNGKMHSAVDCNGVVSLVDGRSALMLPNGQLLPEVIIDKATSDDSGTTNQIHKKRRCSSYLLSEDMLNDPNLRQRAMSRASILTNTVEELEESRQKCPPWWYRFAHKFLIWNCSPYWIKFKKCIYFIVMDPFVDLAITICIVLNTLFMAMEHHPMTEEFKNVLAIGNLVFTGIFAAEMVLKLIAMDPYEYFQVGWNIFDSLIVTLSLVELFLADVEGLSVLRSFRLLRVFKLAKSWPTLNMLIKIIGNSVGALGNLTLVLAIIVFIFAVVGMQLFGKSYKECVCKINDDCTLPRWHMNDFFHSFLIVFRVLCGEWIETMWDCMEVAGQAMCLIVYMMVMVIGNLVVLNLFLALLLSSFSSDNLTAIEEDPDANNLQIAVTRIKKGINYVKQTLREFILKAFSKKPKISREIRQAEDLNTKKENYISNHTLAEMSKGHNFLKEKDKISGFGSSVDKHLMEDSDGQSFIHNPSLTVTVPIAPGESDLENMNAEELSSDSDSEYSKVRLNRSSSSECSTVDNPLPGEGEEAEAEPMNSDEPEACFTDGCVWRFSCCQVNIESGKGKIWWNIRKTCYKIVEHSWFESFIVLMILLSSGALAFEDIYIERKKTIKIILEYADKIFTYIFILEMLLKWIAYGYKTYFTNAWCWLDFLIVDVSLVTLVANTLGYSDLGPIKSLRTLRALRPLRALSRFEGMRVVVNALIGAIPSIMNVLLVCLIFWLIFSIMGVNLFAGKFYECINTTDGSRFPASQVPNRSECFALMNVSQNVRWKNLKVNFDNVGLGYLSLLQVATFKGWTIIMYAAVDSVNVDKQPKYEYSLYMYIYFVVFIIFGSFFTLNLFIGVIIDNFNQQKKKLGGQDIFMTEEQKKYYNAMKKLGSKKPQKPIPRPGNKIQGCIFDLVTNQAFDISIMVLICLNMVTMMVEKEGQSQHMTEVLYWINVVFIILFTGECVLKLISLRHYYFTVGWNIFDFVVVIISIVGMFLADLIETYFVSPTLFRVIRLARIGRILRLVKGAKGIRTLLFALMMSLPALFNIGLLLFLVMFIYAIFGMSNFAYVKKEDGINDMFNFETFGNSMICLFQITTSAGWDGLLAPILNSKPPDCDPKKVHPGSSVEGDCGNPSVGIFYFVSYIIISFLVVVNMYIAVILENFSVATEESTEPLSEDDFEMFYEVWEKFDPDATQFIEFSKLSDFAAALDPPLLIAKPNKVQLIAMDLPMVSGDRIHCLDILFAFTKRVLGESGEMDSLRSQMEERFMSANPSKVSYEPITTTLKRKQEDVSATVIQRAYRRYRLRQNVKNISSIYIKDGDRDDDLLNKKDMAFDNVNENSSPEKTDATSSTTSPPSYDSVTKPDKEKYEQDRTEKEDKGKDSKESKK

Turning to `CC[C@H](C)[C@H](NC(=O)[C@@H](NC(=O)[C@H](CCCCN)NC(=O)[C@H](CCCNC(=N)N)NC(=O)[C@@H]1CSSC[C@@H]2NC(=O)[C@H](C)NC(=O)[C@H](CCCNC(=N)N)NC(=O)[C@H](CCCCN)NC(=O)[C@H](CO)NC(=O)[C@H](CC(=O)O)NC(=O)[C@@H]3CSSC[C@H](NC(=O)[C@H](CCCNC(=N)N)NC(=O)[C@H](CC(C)C)NC(=O)CNC(=O)[C@H](CCC(=O)O)NC(=O)[C@H](CSSC[C@H](NC(=O)[C@@H](N)Cc4ccc(O)cc4)C(=O)N[C@@H](CCC(N)=O)C(=O)N[C@@H](CCCCN)C(=O)N[C@@H](Cc4c[nH]c5ccccc45)C(=O)N[C@@H](CCSC)C(=O)N[C@@H](Cc4c[nH]c5ccccc45)C(=O)N[C@@H]([C@@H](C)O)C(=O)N3)NC2=O)C(=O)N[C@@H](CCCCN)C(=O)N[C@@H](CC(C)C)C(=O)N[C@@H](Cc2c[nH]c3ccccc23)C(=O)N1)[C@@H](C)CC)C(N)=O` [compound 2], the “inhibition of hNav1.7 current, in words” value against hNav1.7 [1] (1 nM as printed) was “complete inhibition”. In addition, the “block of hNav1.7 current, in words” value at hNav1.7 [1] (1 μM) was “blocked all Nav1.7 current”. Also, the 1.x/1.7 in [2] (fully non-inactivated) is given as 530; in [2] (partially inactivated), 111; in the data set with hNav1.8 [8] (fully non-inactivated), 5724; in the data set with hNav1.8 [8] (partially inactivated), 3282. For the same molecule, the “block of TTX-sensitive Nav current, in words” value in data set [2] (increasing concentrations, time course) is “blocked nearly all TTX-sensitive Nav current”. For the same molecule, the “block of hNav1.4 current, in words” value on hNav1.4 [3] (100 nM, held at −83 mV) is “completely blocked Nav1.4 current; also recorded: complete inhibition”. In addition, the IC50 in data set [4] was greater than 1000 nM; at hNav1.5 [5], 3 µM and 3.5 µM; at hNav1.5 [6] (setting [18]), 426 nM. For the same molecule, the “IC50 of TTX-resistant sodium channel current inhibition” value in data set [4] is reported as “not measurable”. For the same molecule, the “block of hNav1.3 current, in words” value at hNav1.3 (300 nM, held at −80 mV) is reported as “completely blocked Nav1.3 current; also recorded: complete inhibition”. For the same molecule, the “block of hNav1.5 current, in words” value at hNav1.5 [6] (3 μM, held at −85 mV) is reported as “blocked most Nav1.5 current; also recorded: nearly complete inhibition”. For the same molecule, on hNav1.8 [7], the “block of TTX-resistant hNav1.8 current” value is “approximately 50%”. Further, the “inhibition of hNav1.8 current, in words” value on hNav1.8 [7] is “only partial inhibition”.
For `CC[C@H](C)[C@H](NC(=O)[C@H](CO)NC(=O)[C@H](CCCCN)NC(=O)[C@H](CCCNC(=N)N)NC(=O)[C@@H]1CSSC[C@@H]2NC(=O)[C@H](C)NC(=O)[C@H](CCCNC(=N)N)NC(=O)[C@H](CCCCN)NC(=O)[C@H](CO)NC(=O)[C@H](CC(=O)O)NC(=O)[C@@H]3CSSC[C@H](NC(=O)[C@H](CCC(=O)O)NC(=O)[C@H](CC(C)C)NC(=O)CNC(=O)[C@H](CCC(=O)O)NC(=O)[C@H](CSSC[C@H](NC(=O)[C@@H](N)Cc4ccc(O)cc4)C(=O)N[C@@H](CCC(N)=O)C(=O)N[C@@H](CCCCN)C(=O)N[C@@H](Cc4c[nH]c5ccccc45)C(=O)N[C@@H](CCSC)C(=O)N[C@@H](Cc4c[nH]c5ccccc45)C(=O)N[C@@H]([C@@H](C)O)C(=O)N3)NC2=O)C(=O)N[C@@H](CCCCN)C(=O)N[C@@H](CC(C)C)C(=O)N[C@@H](Cc2c[nH]c3ccccc23)C(=O)N1)C(N)=O` [compound 138], the “% Peptide Remaining” value in [9], in data set [10] and in [12] was 100% throughout. Further, the Nav1.4/Nav1.7 at hNav1.7 [11] was 62 and 34.
Consider `C#CC[C@H](N)C(=O)N[C@@H](Cc1ccc(O)cc1)C(=O)N[C@H]1CSSC[C@@H]2NC(=O)[C@@H]3CSSC[C@@H](C(=O)N[C@@H](CCCNC(=N)N)C(=O)N[C@@H](CCCCN)C(=O)N[C@@H](CCC(=O)O)C(=O)N[C@H](C(N)=O)[C@@H](C)CC)NC(=O)[C@H](Cc4c[nH]c5ccccc45)NC(=O)[C@H](CC(C)C)NC(=O)[C@H](CCCCN)NC(=O)[C@H](CSSC[C@H](NC(=O)[C@H]([C@@H](C)O)NC(=O)[C@H](Cc4c[nH]c5ccccc45)NC(=O)[C@H](CCCC)NC(=O)[C@H](Cc4c[nH]c5ccccc45)NC(=O)[C@H](CCCCN)NC(=O)[C@H](CCC(N)=O)NC1=O)C(=O)N[C@@H](CC(=O)O)C(=O)N[C@@H](CO)C(=O)N[C@@H](CCCCN)C(=O)N[C@@H](CCCNC(=N)N)C(=O)N[C@@H](C)C(=O)N3)NC(=O)[C@H](CCCNC(=N)N)NC(=O)[C@H](CC(C)C)NC(=O)CNC(=O)[C@H](CCC(=O)O)NC2=O` [compound 328], for which the “block of hNav1.6 current, in words” value on human Nav1.6 (1000 nM, held at −67 mV) is “blocks the majority of Nav current”. The concentration for half-maximal inhibition (IC50) stood at 19.4 nM at human Nav1.6 (manual patch clamp, ~20% inactivation, read-out: IC50 hNav1.6); 30.7 nM in data set [13]; 0.62 nM on hNav1.7 [1] (read-out: IC50 of hNav1.7 inhibition); 11.2 nM in [2]; 74.6 nM on hNav1.4 [3] (manual WCPC, partially inactivated state, read-out: IC50 of hNav1.4 inhibition); 52.5 nM at hNav1.3 (manual WCPC, ~20% inactivation, read-out: IC50 of hNav1.3 inhibition). Besides, the half-maximal inhibitory concentration (IC50) is 27.2 nM at human Nav1.1 (manual patch clamp, ~20% inactivation, read-out: IC50 hNav1.1); 0.548 nM at hNav1.7 [14]; 183 nM on hNav1.6 (Table 15, read-out: PX hNav1.6 Tonic IC50); greater than 1000 nM at hNav1.5 [6] (WCPC, partially inactivated, hNav1.5, n=2, read-out: Mean IC50); greater than 1000 nM on hNav1.5 [6] (setting [18]); 44.4 nM on human Nav1.2 (manual patch clamp, ~20% inactivation, read-out: IC50 hNav1.2). For the same molecule, the IC50 is greater than 1000 nM at hNav1.8 [7] and greater than 1000 nM at hNav1.8 [7] (WCPC, partially inactivated, hNav1.8, n=2, read-out: Mean IC50). The 1.x/1.7 at human Nav1.6 (partially inactivated, hNav1.6 / hNav1.7) is 31; in [13] (partially inactivated, rTTX-S / hNav1.7), 50; in data set [2] (partially inactivated) it was 18; at hNav1.4 [3] (partially inactivated, hNav1.4 / hNav1.7), 120; at hNav1.3 (partially inactivated, hNav1.3 / hNav1.7), 85; at human Nav1.1 (partially inactivated, hNav1.1 / hNav1.7) it was 44. Besides, the 1.x/1.7 is recorded as greater than 1613 on hNav1.5 [6] (partially inactivated, hNav1.5 / hNav1.7); 72 at human Nav1.2 (partially inactivated, hNav1.2 / hNav1.7); greater than 1613 with hNav1.8 [8] (partially inactivated). The “block of TTX-sensitive Nav current” value in [13] (300 nM, Sprague Dawley rat DRG neuron held at −78 mV) is given as “approximately 85%”; in [2] (300 nM, C57 Black 6 mouse DRG neuron), “approximately 90%”. Further, the “block of hNav1.7 current” value on hNav1.7 [1] (100 nM) was “approximately 95%”. Moreover, the “potency against hNav1.7, in words” value at hNav1.7 [1] (manual WCPC) is on record as “sub-nanomolar potency”. Also, the “selectivity for hNav1.7 against other human VGSCs” value on hNav1.7 [1] (manual WCPC, hNav1.1-hNav1.8) was greater than 30 fold. For the same molecule, at hNav1.4 [3] (1000 nM, held at −78 mV), the “block of hNav1.4 current” value was “approximately 90%”. Besides, the “block of hNav1.3 current” value at hNav1.3 (1000 nM, held at −68 mV) is “approximately 90%”. The “block of hNav1.1 current” value on human Nav1.1 (1000 nM, held at −70 mV) was “approximately 95%”. In addition, the “selectivity for Nav1.7 over Nav1.6” value on hNav1.6 (PatchXpress) turned out to be 334 fold. Besides, the Nav1.6/Nav1.7 at hNav1.6 (Table 15, ratio of PX tonic IC50 values) was found to be 334. In addition, the Nav1.4/Nav1.7 on hNav1.4 [15] was 253. For the same molecule, the “block of hNav1.5 current” value at hNav1.5 [6] (1000 nM, held at −77 mV) is listed as “less than 10%”. For the same molecule, the “block of hNav1.2 current, in words” value at human Nav1.2 (1000 nM, held at −65 mV) is recorded as “blocks the majority of Nav current”. In addition, the Nav1.5/Nav1.7 at hNav1.5 [16] is reported as 5854. The “block of TTX-resistant hNav1.8 current” value at hNav1.8 [7] (1000 nM) is on record as “approximately 30%”. In data set [17], the “mean Cmax over the mouse DRG Nav1.7 IC50” value was 196 fold. The peak level in “in vivo” (Cmax) was 2200 nM. In “in vivo”, this molecule showed a half-life of roughly 270 min.
